Experiments:
[1] = test system: lethally-irradiated female B6D2F1 mice; assay: Survival of lethally-irradiated mice (10 Gy total body irradiation, 137Cs); format: in vivo; details: groups of 12
Protocol: Exposure of rodents to ionizing radiation exposure. The effect of selected F1Cs on survival of lethally-irradiated female B6D2F1 mice were compared to control animals treated with vehicle alone. The animals were exposed to 10 Gy of total body irradiation at 2.5 Gy/min using a ^137Cs source. […] For Group 4, test article was administered as a 50 μL volume, by intramuscular injection for three consecutive days. The formulation was a suspension containing 0.1% w/v carboxymethyl-cellulose, 0.9% w/v sodium chloride and 0.05% v/v phenol. The formulations were agitated to uniformly resuspend the F1C before syringing, and injected into animals within a few minutes of drawing into the syringe to prevent settling in the syringe.
The groups of animals were treated as follows.

[2] = test system: Macaca mulatta (Rhesus monkey) exposed to 6 Gy γ-radiation
From the text: Treatment of whole body lethal radiation and characterization of mortality surrogate markers. Two groups of 10 Macaca mulatta (Rhesus monkey) were exposed to a 6 Gy dose of γ-radiation from a ^60Co source. This dose is an LD50/30 dose for this species. […] The age range was 1.75-5.0 years at the onset of treatment.
Test article was an aqueous suspension in vehicle. The vehicle article consists of a solution of sodium chloride (0.9% w/v), carboxymethylcellulose (0.5% w/v), polysorbate 80 (2% v/v), benzalkonium chloride (0.02% v/v) and sodium phosphate (10 mM, pH 6.5). Immediately prior to drawing into a syringe, the test article formulation was briefly vortexed to uniformly distribute sedimented test article. Once drawn into a syringe, the test article was administered within 10 minutes. Just prior to injection, the syringe containing the test article was rotated end-over-end to uniformly disperse the compound.
Whole body radiation. The animals were exposed to ionizing as follows. Dosimetry measurements using phantoms, the dose rate and duration of irradiation and the actual time of irradiation for each individual animal was recorded. Animals were fasted overnight prior to whole-body irradiation and fed upon return to the housing facility. Animals were transferred to the treatment facility in a transport vehicle with controlled environment. During transportation, each animal was individually housed in a stainless steel squeeze back cage. Temperature in the transport vehicle was automatically recorded every 5 minutes during transportation. Clinical signs were monitored immediately before and after transportation.
The animals received a midline treatment dose of 600 cGy. The dose rate of the ^60Co gamma source was about 60 cGy per minute and the actual rate was recorded for each animal. To obtain a homogenous dose distribution, the radiation treatment was divided in two parts. First, the animal received half of the dose by anteroposterior irradiation. The second half of the dose was delivered by posteroanterior irradiation. Once the treatment was completed, animals were returned to the transport vehicle and transported to the housing facility. The radiation dose was calibrated using an acrylic phantom placed in the same experimental set up that was used for animal irradiation.
The animals received the vehicle control once daily for five consecutive days by intramuscular injections. The first injection on day 1 was administered at 2-3 hours after irradiation. The dose volume was 0.15 mL/kg for all animals. The dose volume was evenly divided between two distinct sites (approximately 0.075 mL/kg per site). The actual volume delivered was calculated and adjusted based on each animal's body weight.
During the pre-treatment period cage side observations of clinical signs were performed once daily. A detailed clinical examination was performed on all animals once prior to irradiation on day 1, day 9, weekly thereafter and at day 40 and 41. After radiation, the animals and clinical signs were observed twice a day during the protocol or as often as deemed necessary. Moribund animals were euthanized for humane reasons.

[3] = test system: female BALB/cByJ mice, DTH response to topical oxazolone challenge; assay: Modulation of delayed type hypersensitivity (oxazolone ear challenge); format: in vivo; details: difference right minus left ear, 24 hours following oxazolone challenge; vehicle alone 0.225 mm
Protocol: Modulation of delayed type hypersensitivity. The capacity of F1Cs to modulate delayed type hypersensitivity (DTH) is determined in mice. Groups of five female BALB/cByJ mice (20-25 grams) are anesthetized and 100 μL of a 3% solution of oxazolone is applied on day 0 to the shaved abdomen and dried. Seven days later, on day 7, the mice are challenged by applying 5 μL of oxazolone topically to each side of the right ear. The F1C (at about 20-100 mg/mL) in vehicle is administered by subcutaneous injection (2 mg/day) one time on day 6, 24 hours before the oxazolone challenge. The vehicle as a non-aqueous suspension of the F1C in, e.g., 2% benzyl alcohol w/v, 0.1% Brij 96 w/v and equal volumes of PEG 300 and propylene glycol.
Dexamethasone in saline (0.2 mg/mL) is administered daily for 9 days (day −1 to 7), first dose 24 hours before sensitization, last dose at challenge by subcutaneous injection (0.01 mg/dose, 50 μl/injection). On Day 8, 24 hours following the oxazolone challenge, both the right and left ear thicknesses are measured using a micrometer caliper and the differences are determined. The differential ear thickness is measured as an indicator of the DTH response to topical oxazolone challenge. The DTH response is expressed as the difference in the thickness (mm) between the right and the left ears for each animal.

[4] = day 6, 0.6 mg s.c. daily for 3 days
[5] = day 7, 0.6 mg s.c. daily for 3 days
[6] = day 12, 0.6 mg s.c. daily for 3 days
[7] = day 21, 0.6 mg s.c. daily for 3 days

Q: C[C@]12CC[C@H]3[C@@H](CC=C4C[C@@H](O)CC[C@@]43C)[C@@H]1CC[C@@H]2O [3β,17β-dihydroxyandrost-5-ene] was tested. Which “number of surviving animals” value ([1]; day 6, 0.6 mg i.m. daily for 3 days) did it give?
A: 12

Q: And the “number of surviving animals” value [1, 4]?
A: 12

Q: And the “number of surviving animals” value ([1]; day 6, 3.0 mg s.c. daily for 3 days)?
A: 12

Q: What about the “number of surviving animals” value ([1]; day 7, 0.6 mg i.m. daily for 3 days) of the same compound?
A: 12

Q: And the “number of surviving animals” value [1, 5]?
A: 11

Q: And the “number of surviving animals” value ([1]; day 7, 3.0 mg s.c. daily for 3 days)?
A: 12

Q: What about the “number of surviving animals” value ([1]; day 12, 0.6 mg i.m. daily for 3 days) of the same compound?
A: 11

Q: What about the “number of surviving animals” value [1, 6] of the same compound?
A: 10

Q: What about the “number of surviving animals” value ([1]; day 12, 3.0 mg s.c. daily for 3 days) of the same compound?
A: 9

Q: What about the “number of surviving animals” value ([1]; day 21, 0.6 mg i.m. daily for 3 days) of the same compound?
A: 9

Q: And the “number of surviving animals” value [1, 7]?
A: 7

Q: And the “number of surviving animals” value ([1]; day 21, 3.0 mg s.c. daily for 3 days)?
A: 7

Q: What about the “number of animals having febrile severe neutropenia (>40.4° C. and absolute neutrophil count less than 500 cells/μL)” value ([2]; 15 mg/kg i.m. for 5 days, group of 10, at some time during the protocol) of the same compound?
A: 2

Q: And the “days of severe thrombocytopenia (less than 20,000 platelets/μL) experienced collectively” value ([2]; 15 mg/kg i.m. for 5 days, group of 10, vehicle 51 days, p=0.009)?
A: 32 days

Q: What about the “median days of febrile severe neutropenia” value ([2]; 15 mg/kg i.m. for 5 days, vehicle median 5 days, p=0.037) of the same compound?
A: 0 days

Q: And the animals survived ([2]; 15 mg/kg i.m. once per day for 5 days, 40 days)?
A: 9 of 10

Q: And the Mortality ([2]; 15 mg/kg i.m. once per day for 5 days, control group 40%)?
A: 10%

Q: C[C@]12CC[C@H]3[C@@H](CC=C4C[C@@H](O)CC[C@@]43C)[C@@H]1CC[C@@H]2N [3β-hydroxy-17,7-aminoandrost-5-ene] was tested. Which “number of surviving animals” value [1, 4] did it give?
A: 12

Q: And the “number of surviving animals” value [1, 5]?
A: 12

Q: What about the “number of surviving animals” value [1, 6] of the same compound?
A: 12

Q: And the “number of surviving animals” value [1, 7]?
A: 11

Q: With O=P1(N(CCCl)CCCl)NCCCO1 (centres unmarked) [cyclophosphamide] as the compound, how does the “differential ear thickness (DTH response)” value [3] read?
A: 0.092 mm

Q: With C[C@@H]1C[C@H]2[C@@H]3CCC4=CC(=O)C=C[C@]4(C)[C@@]3(F)[C@@H](O)C[C@]2(C)[C@@]1(O)C(=O)CO [dexamethasone] as the compound, how does the “differential ear thickness (DTH response)” value [3] read?
A: 0.144 mm
